# From patent publication US8535950B2, “Use of perfluoropolymer submicrometric latexes in the determination of molecular interactions by laser light scattering (LLS)” (Solvay Solexis S.p.A., priority 2005, dated 2013)
# Structures can show the parent of a compound that is named as a salt.
# System: peptide sequence L-Lys-D-Ala-D-Ala
# Assay: Binding constant by laser light scattering (LLS) on perfluoropolymer latex particles coated with receptor-ended surfactant
# Source text: More specifically the use comprises the following steps: • a) addition to a colloidal aqueous suspension or latex of particles having an average diameter between 5 and 200 nm, preferably between 40 and 80 nm, formed of a perfluorinated, semicrystalline or amorphous polymer, of a sequence of known volumes of an aqueous solution of a mixture containing from 50% to 99.5% by weight of an amphiphylic non ionic surfactant and from 0.5 to 50% by weight of a surfactant ended with a receptor, measuring after each addition the intensity of the scattered light by the suspension by Laser Scattering Light (LLS) and reporting it on a diagram in function of the progressively added solution volume, until reaching an asymptotic value (Ir); • b) addition to the suspension obtained in step a) of a sequence of known volumes of a ligand aqueous solution, measuring after each addition the intensity of the scattered light by the suspension by Laser Scattering Light (LLS) its reporting on a diagram in function of the progressively added solution volume (expressed as molar concentration [T0]), until reaching an asymptotic value and fitting the scattered light intensity data (I) in function of the ligand additions ([T0]) with formula (1) to obtain the receptor-ligand binding constant (K), wherein formula (1) is: […]
compound,measurement,setting,value
"CN[C@H](CC(C)C)C(=O)N[C@H]1C(=O)N[C@@H](CC(N)=O)C(=O)N[C@H]2C(=O)N[C@H]3C(=O)N[C@H](C(=O)N[C@H](C(=O)O)c4cc(O)cc(O)c4-c4cc3ccc4O)[C@H](O)c3ccc(c(Cl)c3)Oc3cc2cc(c3O[C@@H]2O[C@H](CO)[C@@H](O)[C@H](O)[C@H]2O[C@H]2C[C@](C)(N)[C@H](O)[C@H](C)O2)Oc2ccc(cc2Cl)[C@H]1O [Vancomycin, Vancomycin hydrochloride hydrate]",receptor-ligand binding constant,"Example 1: 0.1% latex, 78 nm particles of TFE copolymer with 40% by moles perfluoromethylvinylether, 0.4 millimole Vancomycin solution in 6 microlitre portions, Langmuir fit",1.5e+06 mol⁻¹
same,receptor-ligand binding constant,"Example 2: 0.1% latex, 40 nm particles of TFE copolymer with 30% by moles TTD, 0.9 millimolar Vancomycin in 6 microlitre portions",1.1e+06 mol⁻¹
